The IC50 is the concentration at which inhibition is half-maximal.

Our source for the IC50 values is patent US8198273B2, “Compounds and methods for kinase modulation, and indications therefor” (Plexxikon Inc., priority 2009, dated 2012).

Data set [1] deals with B-Raf V600E (Homo sapiens, UniProt P15056, V600E). Nature of the data set: B-Raf V600E biochemical kinase inhibition (AlphaScreen, biotin-MEK1 substrate). The settings on record: 100 μM ATP. Summed up: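 Serial 1:3 dilutions of compound (0.1 mM DMSO stock, eight points) were added first, then ATP to start the reaction at 100 μM final.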
Data set [2] has as its system SW620 colon adenocarcinoma cells (wild-type B-RAF). Nature of the data set: SW620 cell growth inhibition (ATPlite). The format is cell-based. The settings on record: Homo sapiens, SW-620, 72 h; SW620, 3 days incubation. Summed up:
(§1)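 ATPlite luminescence, taken as a cell-number measure, gave IC50 values after a 3-day 37° C, 5% CO2 incubation. Compounds were tested as 8-point threefold titrations, highest final concentration 10 μM, added to cells seeded the day before.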
On the technique in general: In ATP-based viability assays light output follows the ATP content of the culture.

Data set [3] has as its system COLO205 colon adenocarcinoma cells (B-Raf V600E). The data set can be described thus: COLO205 cell growth inhibition (ATPlite). It is filed as cell-based. The settings on record: Homo sapiens, COLO 205, 72 h; COLO205, 3 days incubation. Summed up:
as §1

Data set [4] deals with CYP3A4(BFC) (Homo sapiens, UniProt P08684). Nature of the data set: CYP3A4(BFC) inhibition (fluorescent substrate). It is filed as in vitro ADME. The settings on record: read-out: Cyp IC50 3A4(BFC). In short, it runs like this:
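Compound, from a 100 mM DMSO stock and diluted 1:1 over 10 points in co-factor mix, was incubated at 37° C with enzyme and a known substrate. Decrease in fluorescent product against concentration gave the IC50.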

Each structure is given as a SMILES string. Some results are limits rather than exact numbers.

Sequence of B-Raf V600E (P15056 whole entry V600E): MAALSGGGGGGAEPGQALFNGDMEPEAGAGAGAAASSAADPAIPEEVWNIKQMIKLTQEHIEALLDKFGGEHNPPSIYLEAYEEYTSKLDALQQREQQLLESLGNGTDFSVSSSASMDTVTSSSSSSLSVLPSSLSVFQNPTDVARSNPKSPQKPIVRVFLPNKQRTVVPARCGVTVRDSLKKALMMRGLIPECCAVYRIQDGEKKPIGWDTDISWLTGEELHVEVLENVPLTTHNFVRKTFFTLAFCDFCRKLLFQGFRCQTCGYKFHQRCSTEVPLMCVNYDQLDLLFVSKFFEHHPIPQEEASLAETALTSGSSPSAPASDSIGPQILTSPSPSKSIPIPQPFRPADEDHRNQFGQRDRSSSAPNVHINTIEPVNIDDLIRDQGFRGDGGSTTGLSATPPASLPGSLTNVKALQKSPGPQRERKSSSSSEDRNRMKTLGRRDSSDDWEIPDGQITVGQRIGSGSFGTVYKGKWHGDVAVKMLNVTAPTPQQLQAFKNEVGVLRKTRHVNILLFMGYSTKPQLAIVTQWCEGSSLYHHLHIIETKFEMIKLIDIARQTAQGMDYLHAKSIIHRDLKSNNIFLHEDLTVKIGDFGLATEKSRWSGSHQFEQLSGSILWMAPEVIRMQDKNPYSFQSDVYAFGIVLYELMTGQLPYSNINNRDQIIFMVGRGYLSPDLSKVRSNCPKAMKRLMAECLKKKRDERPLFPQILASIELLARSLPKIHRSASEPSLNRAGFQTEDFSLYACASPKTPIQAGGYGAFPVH
Sequence of CYP3A4(BFC) (P08684 whole entry): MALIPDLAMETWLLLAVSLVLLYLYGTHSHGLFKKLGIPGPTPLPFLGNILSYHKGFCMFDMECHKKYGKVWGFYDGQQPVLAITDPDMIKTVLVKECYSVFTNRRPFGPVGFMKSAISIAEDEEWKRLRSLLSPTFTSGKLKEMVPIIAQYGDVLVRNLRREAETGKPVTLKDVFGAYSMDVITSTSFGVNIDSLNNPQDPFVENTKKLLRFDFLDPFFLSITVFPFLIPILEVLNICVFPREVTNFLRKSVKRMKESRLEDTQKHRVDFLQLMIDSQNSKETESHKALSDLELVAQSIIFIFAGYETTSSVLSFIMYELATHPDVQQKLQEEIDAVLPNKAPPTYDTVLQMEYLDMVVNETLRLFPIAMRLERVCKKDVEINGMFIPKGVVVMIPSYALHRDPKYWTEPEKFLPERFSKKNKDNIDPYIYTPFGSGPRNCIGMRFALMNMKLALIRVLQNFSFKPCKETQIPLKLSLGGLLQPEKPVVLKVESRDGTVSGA

As for `CCCS(=O)(=O)Nc1ccc(F)c(C(=O)c2c[nH]c3ncc(-c4ccc(N(C)C)nc4)cc23)c1F` [P-2229, Propane-1-sulfonic acid {3-[5-(6-dimethylamino-pyridin-3-yl)-1H-pyrrolo[2,3-b]pyridine-3-carbonyl]-2,4-difluoro-phenyl}-amide], the 50% inhibitory concentration (IC50) is below 0.1 µM in data set [1], above 10 µM in data set [2], below 0.1 µM in data set [3] and above 10 µM in data set [4].
